Key:
c-Src kinase domain [1] = molecular target: T1, c-Src kinase domain (Homo sapiens, UniProt P12931); experiment: pTyr-Var library bacterial peptide display kinase screen (enrichment scores); assay type: biochemical; conditions: for Screen: sheet "Src", effect of the variant peptide relative to its reference peptide in the pTyr-Var library screen;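 as to c-Src hit?: Hit requires p below 0.05 and at least twofold variant vs reference change plus filters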;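 as to screen: log2 fold change in enrichment of variant over reference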
Fyn kinase domain [2] = experiment: as above; assay type: biochemical, human
Hck kinase domain = experiment: as above; assay type: biochemical, human
c-Abl kinase domain = molecular target: T2, c-Abl kinase domain (Mus musculus, UniProt P00520); experiment: as above; assay type: biochemical; conditions: for Screen: fig5-data2, sheet "Abl", Screen for the variant/reference peptide pair;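 as to c-Abl hit?: Hit requires p below 0.05 and at least twofold variant vs reference change plus filters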;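 as to screen: log2 fold change in enrichment of variant over reference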
T2 sequence (P00520 242-493 limits assumed): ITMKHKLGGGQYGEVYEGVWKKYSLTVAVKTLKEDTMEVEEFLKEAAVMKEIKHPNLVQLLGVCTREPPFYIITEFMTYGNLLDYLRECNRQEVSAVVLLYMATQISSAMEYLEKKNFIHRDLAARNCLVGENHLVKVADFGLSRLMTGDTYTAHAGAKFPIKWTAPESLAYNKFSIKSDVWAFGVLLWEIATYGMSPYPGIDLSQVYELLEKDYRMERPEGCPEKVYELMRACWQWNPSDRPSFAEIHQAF

Jak2 = experiment: as above; assay type: biochemical, human
AncSZ kinase domain = experiment: as above; assay type: biochemical
Fer kinase domain = experiment: as above; assay type: biochemical, mouse; conditions: for Screen: sheet "Fer", value of the variant peptide against its reference peptide in the pTyr-Var library screen with Fer
Fes = experiment: as above; assay type: biochemical
FGFR1 kinase domain [3] = experiment: as above; assay type: biochemical, human
FGFR3 kinase domain = experiment: as above; assay type: biochemical, human
EPHB1 kinase domain = experiment: as above; assay type: biochemical, human; conditions: for Screen: sheet EPHB1, effect of the variant peptide relative to its reference peptide in the pTyr-Var library screen (enrichment scores)
EPHB2 kinase domain = experiment: as above; assay type: biochemical, human; conditions: for Screen: sheet EPHB2, effect of variant peptide relative to its reference peptide in the pTyr-Var library screen (enrichment scores)
MERTK kinase domain = experiment: as above; assay type: biochemical, human
c-Src SH2 domain = c-Src SH2 domain (Homo sapiens, UniProt P12931); experiment: pTyr-Var library SH2 domain screen with SH2-dynabeads (enrichment scores); conditions: sheet c-Src
SHP2 C-SH2 domain = experiment: as above
Grb2 SH2 domain = experiment: as above
c-Src kinase domain [4] = molecular target: T1, c-Src kinase domain; experiment: RP-HPLC assay to measure peptide phosphorylation kinetics; assay type: biochemical; conditions: purified peptide substrate
Protocol: To validate the enrichment scores observed in the c-Src screening data, the phosphorylation rates were measured in vitro with the purified catalytic domain of c-Src and synthetic 11-residue peptides derived from sequences in the pTyr-Var library. […] Reactions were initiated by adding 1 mM ATP. At various time points, 100 μL aliquots were removed and quenched by the addition of EDTA to a final concentration of 25 mM. Each time point sample was analyzed by analytical RP-HPLC, monitoring absorbance at 214 nm. Forty μL of each time point was injected onto a C18 column (ZORBAX 300 SB-C18, 5 μm, 4.6x150 mm). The solvent system used was water with 0.1% trifluoroacetic acid (solvent A) and acetonitrile with 0.1% trifluoroacetic acid (solvent B). […] The fractional product peak area was plotted as a function of reaction time, and the initial linear regime of this plot was fitted to a straight line to determine a reaction rate. Rates were corrected for substrate and enzyme concentration. Reactions were done in triplicate or quadruplicate.

c-Src kinase domain [5] = molecular target: T1, c-Src kinase domain; experiment: ADP-Quest continuous fluorimetric kinase assay (Michaelis-Menten parameters and initial rates); assay type: biochemical; conditions: c-Src kinase domain 10 nM, 100 μM ATP, 37 °C, three to five replicates, error = standard error of global Michaelis-Menten fit
FGFR1 kinase domain [6] = experiment: LC-MS assay of intact SHP2 protein phosphorylation; assay type: biochemical, human; conditions: SHP2 10 μM, kinase 1 μM, 1 hr, 37 °C, 2 to 3 measurements
Protocol: (§1) The same protocol used to express and purify SH2 domains, excluding co-expression of BirA and addition of biotin, was applied to the expression and purification of the SHP2 variants.
(§2) To pre-activate the kinases, 1 μM of each purified kinase domain was preincubated at 37 °C for 30 min in the same buffer conditions used in the kinase domain peptide display screen, with 1 mM ATP. The reaction of the kinase with SHP2 was initiated with the addition of 10 μM SHP2, and the mixture was incubated in 37 °C for 1 hr. To terminate the reaction, the mixture was quenched with 200 mM EDTA. The reaction mixture was diluted 3:2 in water and injected onto a BEH C8 column (Waters) on a UPLC-MS system (Xevo QToF, Waters). Reverse-phase liquid chromatography was carried out at 0.3 mL/min with solvents A (H2O, 0.1% (v/v) formic acid) and B (acetonitrile, 0.1% (v/v) formic acid). Proteins were eluted over a gradient of 5–95% B for 8.5 min. The protein peak on the chromatogram was deconvoluted using the MaxEnt1 algorithm from 32,000–65,000 Da with a resolution of 1 Da/channel over 30 iterations. Peaks were chosen according to the theoretical MW of the protein within a range of 5 Da, and integrated for the signal intensity.

Fyn kinase domain [7] = experiment: LC-MS assay of intact SHP2 protein phosphorylation; assay type: biochemical, human; conditions: SHP2 10 μM, kinase 1 μM, 1 hr, 37 °C, 2 to 3 measurements
Protocol: as §1, §2

[8] = mean of log2 of enrichment over R1-R4
[9] = pTyr-Var library, enrichment score, replicate 1
[10] = pTyr-Var library, enrichment score, replicate 3
[11] = pTyr-Var library, enrichment score, replicate 4
[12] = variant versus reference peptide
[13] = variant versus reference peptide, significant hit TRUE/FALSE
[14] = mean of log2(variant) minus mean of log2(reference)
[15] = mean of log2 enrichment of variant peptide, n = 5
[16] = mean of log2 enrichment of variant peptide, n = 4
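For AncSZ hit? in this document: Hit requires p below 0.05 and at least twofold variant vs reference change plus filters.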
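For Fyn hit? in this document: Hit requires p below 0.05 and at least twofold variant vs reference change plus filters.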
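For screen in this document: log2 fold change in enrichment of variant over reference.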

## GMAHNYRNRSQ [AASS_Y188_S191R]
c-Src kinase domain [1]; [8]
  c-Src mean of log2(enrichment): -1.078
c-Src kinase domain [1]; [9]
  c-Src enrich. R1: 0.5961
c-Src kinase domain [1]; [10]
  c-Src enrich. R3: 0.5045
c-Src kinase domain [1]; [11]
  c-Src enrich. R4: 0.4581
c-Src kinase domain [1]; [12]
  c-Src difference (mean log2 variant - mean log2 reference): 0.3253
c-Src kinase domain [1]; [13]
  c-Src hit?: FALSE
Fyn kinase domain [2]; [8]
  Fyn mean of log2(enrichment): -1.18
Fyn kinase domain [2]; [9]
  Fyn enrich. R1: 0.3131
Fyn kinase domain [2]; [10]
  Fyn enrich. R3: 0.443
Fyn kinase domain [2]; [11]
  Fyn enrich. R4: 0.884
Fyn kinase domain [2]; [12]
  Fyn difference (mean log2 variant - mean log2 reference): 0.1477
Fyn kinase domain [2]; [13]
  Fyn hit?: FALSE
Hck kinase domain; mean of log2(variant) / mean of log2(reference), R1-R4
  Hck mean of log2(enrichment): 0.5234
Hck kinase domain; [9]
  Hck enrich. R1: 0.3364
Hck kinase domain; [10]
  Hck enrich. R3: 0.4885
Hck kinase domain; [11]
  Hck enrich. R4: 0.9262
Hck kinase domain; [12]
  Hck difference (variant - reference): 0.1099
Hck kinase domain; [13]
  Hck hit?: FALSE
c-Abl kinase domain; [8]
  c-Abl mean of log2(enrichment): -0.8983
c-Abl kinase domain; [9]
  c-Abl enrich. R1: 0.3489
c-Abl kinase domain; [10]
  c-Abl enrich. R3: 0.6113
c-Abl kinase domain; [11]
  c-Abl enrich. R4: 0.4438
c-Abl kinase domain; [13]
  c-Abl hit?: FALSE
Jak2; mean of log2 of enrichment over R1-R3
  Jak2 mean of log2(enrichment): -1.127
Jak2; [10]
  Jak2 enrich. R3: 0.7448
Jak2; [12]
  Jak2 difference (mean log2 variant - mean log2 reference): 0.1075
Jak2; [13]
  Jak2 hit?: FALSE
AncSZ kinase domain; mean of log2 of enrichment over R1-R5
  AncSZ mean of log2(enrichment): -0.8229
AncSZ kinase domain; [9]
  AncSZ enrich. R1: 0.4421
AncSZ kinase domain; [10]
  AncSZ enrich. R3: 0.7733
AncSZ kinase domain; [11]
  AncSZ enrich. R4: 0.7058
AncSZ kinase domain; pTyr-Var library, enrichment score, replicate 5
  AncSZ enrich. R5: 0.7616
AncSZ kinase domain; [12]
  AncSZ difference (mean log2 variant - mean log2 reference): -0.03377
AncSZ kinase domain; [13]
  AncSZ hit?: FALSE
Fer kinase domain; [8]
  Fer mean of log2(enrichment): -1.585
Fer kinase domain; [9]
  Fer enrich. R1: 0.273
Fer kinase domain; [10]
  Fer enrich. R3: 0.5188
Fer kinase domain; [11]
  Fer enrich. R4: 0.4406
Fer kinase domain; [12]
  Fer difference (mean log2 variant - mean log2 reference): -0.1949
Fer kinase domain; [13]
  Fer hit?: FALSE
Fes; mean of log2 of enrichment over R1-R6
  Fes mean of log2(enrichment): -0.768
Fes; [12]
  Fes difference (mean log2 variant - mean log2 reference): 0.4232
FGFR1 kinase domain [3]; [14]
  difference: -0.1712
FGFR1 kinase domain [3]; [15]
  mean of log2(variant): -1.608
FGFR1 kinase domain [3]; pTyr-Var library, variant peptide enrichment, mean of n = 5
  var. mean: 0.3444
FGFR3 kinase domain; [14]
  difference: -0.0947
FGFR3 kinase domain; [15]
  mean of log2(variant): -1.326
EPHB1 kinase domain; [14]
  difference: 0.7368
EPHB1 kinase domain; [16]
  mean of log2(variant): -1.347
EPHB2 kinase domain; [14]
  difference: -0.2462
EPHB2 kinase domain; [16]
  mean of log2(variant): -1.376
MERTK kinase domain; [14]
  difference: 0.1021
MERTK kinase domain; [16]
  mean of log2(variant): -1.214
c-Src SH2 domain; [14]
  difference: -0.07136
c-Src SH2 domain; mean of log2 enrichment of variant peptide, R1-R3
  mean of log2(variant): -1.19
SHP2 C-SH2 domain; SHP2-C SH2, mean of log2(variant) minus mean of log2(reference)
  difference: -0.6126
SHP2 C-SH2 domain; SHP2-C SH2, mean of log2 enrichment of variant, R1-R3
  mean of log2(variant): -1.425
SHP2 C-SH2 domain; SHP2-C SH2, variant versus reference significant hit call
  hit?: FALSE
Grb2 SH2 domain; Grb2 SH2, mean of log2(variant) minus mean of log2(reference)
  difference: -0.06902
Grb2 SH2 domain; Grb2 SH2, mean of log2 enrichment of variant, R1-R3
  mean of log2(variant): -0.6418
Grb2 SH2 domain; Grb2 SH2, variant versus reference significant hit call
  hit?: FALSE

## Ac-WDLPEYSFKDP-NH2 [ITGA3_Y237_S235P_YF, pTyr-Var library variant phosphosite peptide]
c-Src kinase domain [4]
  Phosphorylation Rate: 0.153 s⁻¹
c-Src kinase domain [1]
  Screen: -1.08

## SSSAIYDNPDL [DCP1B_Y191_N195D]
c-Src kinase domain [1]
  Screen: -1.087
c-Abl kinase domain; pTyr-Var library
  Screen: 1.925
Fer kinase domain
  Screen: -0.4908
EPHB1 kinase domain
  Screen: -0.6114
EPHB2 kinase domain
  Screen: -0.486

## FSMGCYEIFLG [HMGCL_Y198_S201Y_YF]
c-Src kinase domain [1]
  Screen: 1.946
c-Abl kinase domain; pTyr-Var library
  Screen: 0.9187
Fer kinase domain
  Screen: 1.084
EPHB1 kinase domain
  Screen: 0.9243
EPHB2 kinase domain
  Screen: 0.8942

## IKRIDYEFVEM [ADA_Y84_A83D]
c-Abl kinase domain; pTyr-Var library
  Screen: 0.5744
Fer kinase domain
  Screen: -0.7273
EPHB1 kinase domain
  Screen: 3.957
EPHB2 kinase domain
  Screen: 2.863

## Ac-GAEEEIYGEFEAKKKG-NH2 [SrcTide (1995), previously reported c-Src consensus substrate (Songyang et al., 1995)]
c-Src kinase domain [5]
  Km: 64 ± 10 µM
  kcat: 3.1±0.2 s^–1

B1: SHP2 D61N: human full-length SHP2 (residues 1–526; C459E, D61N) (protein, UniProt Q06124 2-593, looked up, variant C459E D61N)
Tyrosine-protein phosphatase …: TSRRWFHPNITGVEAENLLLTRGVDGSFLARPSKSNPGDFTLSVRRNGAVTHIKIQNTGNYYDLYGGEKFATLAELVQYYMEHHGQLKEKNGDVIELKYPLNCADPTSERWFHGHLSGKEAEKLLTEKGKHGSFLVRESQSHPGDFVLSVRTGDDKGESNDGKSKVTHVMIRCQELKYDVGGGERFDSLTDLVEHYKKNPMVETLGTVLQLKQPLNTTRINAAEIESRVRELSKLAETTDKVKQGFWEEFETLQQQECKLLYSRKEGQRQENKNKNRYKNILPFDHTRVVLHDGDPNEPVSDYINANIIMPEFETKCNNSKPKKSYIATQGCLQNTVNDFWRMVFQENSRVIVMTTKEVERGKSKCVKYWPDEYALKEYGVMRVRNVKESAAHDYTLRELKLSKVGQGNTERTVWQYHFRTWPDHGVPSDPGGVLDFLEEVHHKQESIMDAGPVVVHESAGIGRTGTFIVIDILIDIIREKGVDCDIDVPKTIQMVRSQRSGMVQTEAQYRFIYMAVQHYIETLQRRIEEEQKSKRKGHEYTNIKYSLADQTSGDQSPLPPCTPTPPCAEMREDSARVYENVGLMQQQKSFR
FGFR1 kinase domain [6]
  phosphorylation of intact SHP2 by FGFR1: dramatically enhanced phosphorylation
Fyn kinase domain [7]
  phosphorylation of intact SHP2 by Fyn: dramatically enhanced phosphorylation
